Laboratory results reported in PMC10413649 (Science Advances, 2023).

How the values were obtained:
[1] = system: mutants of Ku70 complexed to WT Ku80; assay: ITC, mutant Ku70 (complexed to WT Ku80) with P-KBM; assay type: binding; conditions: three Ku70 mutants complexed to WT Ku80 (fig. S7)
Description: DNA-PKcs and full-length His-tagged Ku70/80 were expressed and purified according to ([6]). For crystallography and ITC, the full-length Ku70/80 and a truncated version deleted of its C terminus regions called KuΔC [Ku70 (1 to 544)/Ku80 (1 to 555)], were expressed in Sf21 insect cells using a MultiBac expression system. The Ku80 subunit contains a 10xHis-tag, followed by a Tobacco Etch Virus (TEV) protease site on its N terminus. The Ku70/Ku80 heterodimer was purified according to the protocol described in ([10]). The three KuFL variants with single mutation H162A, R165E, or R517E on Ku70 subunits were expressed in insect cells and purified with the same protocol.
Interaction between Ku-DNA complex and the different peptides (WT and variants) was measured by isothermal calorimetry using a VP-ITC machine. For ITC measurements, the full-length Ku heterodimer was used with the DNA G and F as previously used in ([14]). Before measurements, the Ku heterodimer was extensively dialyzed against buffer [20 mM tris (pH 8), 150 mM NaCl, and 5 mM β-mercaptoethanol]. The cell reaction (1.8 ml) was loaded with the preformed Ku-DNA complex at a 1:1.2 molar ratio respectively. Ku was loaded at 5 μM concentration. The syringe (300 μl) was loaded with the different peptides at different concentrations ranging between 50 and 100 μM. The Ku-DNA complex was titrated by automatic injections of 10 μl at 25°C. […]

[2] = system: laser-induced DNA damage sites in U2OS cells; assay: Laser microirradiation, GFP-PAXX and mCherry-XLF coexpressed in U2OS cells with WT or mutated Ku70; assay type: cell-based, human; conditions: U2OS cells expressing Ku70 mutants; Fig. 5, B to E
[3] = system: laser-induced DNA damage sites in U2OS cells; assay: Laser microirradiation, GFP-PAXX recruitment in mAID-Ku70 U2OS cells with WT or mutated Ku70; assay type: cell-based, human; conditions: mAID-Ku70 U2OS cells + IAA, Fig. 3B
Description: We also purified three mutants of Ku70 complexed to WT Ku80 (fig. S7). […] To assess the impact of Ku70 mutations in cells, we engineered a system in U2OS cells to allow replacement of endogenous Ku70 by mutant forms of the protein (Fig. 3A). As Ku is essential for the viability of human cells, we first knocked down endogenous Ku70 expression via the constitutive expression of a short hairpin–mediated RNA (shRNA) combined with cell rescue through expression of Ku70 tagged with a mini auxin-inducible degron (mAID). This allows for rapid degradation of endogenous Ku70 upon addition of auxin [indole-3-acetic acid (IAA)] ([28]). This system permits a strong and fast Ku70 depletion, with concomitant Ku80 depletion due to reciprocal stabilization of both Ku subunits (Fig. 3A).
The generation of U2OS cells expressing a mAID-Ku70 in place of the endogenous protein was achieved as follows. First, U2OS cells were cotransduced with two lentiviral constructs allowing both the expression of an shRNA against Ku70 and the expression of a Ku70 protein resistant to the shRNA and fused to a mAID tag at its N terminus. The latter vector also expresses a puromycin resistance gene, enabling the selection of a transduced cell population. […]

[4] = system: XLF; assay: Direct PAXX-XLF interaction test; assay type: binding; conditions: tested outside the DNA-PK LR complex; method not described
[5] = system: damaged chromatin fraction of U2OS cells expressing WT or mutated Ku70; assay: Western blot of chromatin fractions after calicheamicin; assay type: cell-based, human; conditions: 3 nM calicheamicin for 1 hour, Fig. 3E

CC[C@H](C)[C@H](NC(=O)[C@H](CC(C)C)NC(=O)[C@H](CO)NC(=O)[C@H](CCC(=O)O)NC(=O)CNC(=O)[C@@H]1CCCN1C(=O)[C@H](CS)NC(=O)[C@H](CCCNC(=N)N)NC(=O)[C@H](CCCNC(=N)N)NC(=O)[C@H](CCCNC(=N)N)NC(C)=O)C(=O)N[C@@H](CC(N)=O)C(=O)N1CCC[C@H]1C(=O)NCC(=O)N[C@@H](Cc1ccccc1)C(=O)N[C@@H](CCCCN)C(=O)N[C@@H](CO)C(=O)N[C@@H](CCCCN)C(=O)N[C@@H](CCCCN)C(=O)N1CCC[C@H]1C(=O)N[C@@H](C)C(=O)NCC(=O)NCC(=O)N[C@H](C(=O)N[C@@H](CC(=O)O)C(=O)N[C@@H](Cc1ccccc1)C(=O)N[C@@H](CC(=O)O)C(=O)N[C@@H](CCC(=O)O)C(=O)N[C@H](C(=O)O)[C@@H](C)O)C(C)C [KBM]
residual interaction of Ku70 mutants with P-KBM (ITC, words) [1]: no residual interaction

GFP-PAXX: GFP-tagged PAXX construct expressed in U2OS cells
recruitment of coexpressed GFP-PAXX / mCherry-XLF to DNA damage sites with Ku70 mutations [2]: compromised to various extents

PAXX: full-length PAXX, paralog of XRCC4 and XLF, 6xHis-tag, expressed in E. coli; WT protein also expressed in cells
PAXX recruitment to damage sites under Ku depletion ([3]; no complementation): abolished under Ku depletion conditions | direct interaction of PAXX and XLF [4]: did not observe a direct interaction when tested | recruitment to damaged chromatin fraction, Ku70 Patch 1 or Patch 2 mutated [5]: not detected in damaged chromatin fraction

WT Ku70: recombinant wild-type Ku70 used to replace degraded endogenous Ku70
PAXX recruitment to microirradiated areas, restored by recombinant Ku70 ([3]; complemented with WT Ku70): restored to levels similar to those in native U2OS cells
